Values quoted from earlier work in patent publication US9072916B2, “Aqueous anti-perspiration formulation” (BEIERSDORF AG, priority 2004, dated 2015).

Settings: in water, alcohol, ether and 2-propanol

solubility: readily soluble
Structure (SMILES): O=C(O)C(O)c1ccccc1 (stereo not shown) [Mandelic acid, mandelic acid]
